Experimental data: EP4620480A1, “IMPLANTATION FACILITATOR, AND SCREENING SYSTEM THEREFOR” (Kansai Medical University Educational Corporation, priority 2022, dated 2025)
Peptide text beside a SMILES is read from it. * marks the point of attachment. Myristoyl = CCCCCCCCCCCCCC(=O)*

What was measured:
[1] = Blood tests on maternal bodies after intraperitoneal administration; type: in vivo; settings: female mice, 8 µM with respect to total weight, in corn oil, blood 24 hours after administration
Description: An excess amount of Iznm-2 was administered intraperitoneally to female mice to examine the side effects of the peptide medicament. In Example 8, […] Iznm-2 was administered together with 5 µl or less of the embryos to the uterus of each mouse. In the present experiment, Iznm-2 was administered in such a manner that the concentration thereof would be 8 µM with respect to the total weight of each mouse. Iznm-2 was dissolved in corn oil. As a control, corn oil without the peptide medicament was administered. Blood samples were collected 24 hours after the administration, and blood components serving as indicators of the condition of the liver and kidney were analyzed.

[2] = test system: B6D2F 1 mouse embryos; test: Embryo development after transfer with peptide-supplemented medium (Example 7); type: in vivo; settings: blastocysts in KSOM medium with 32 µM Iznm-2, transferred to pseudopregnant ICR mice, examined at E14
Description: In order to examine the effect of the peptide medicament on embryo development, the following experiment was performed. ICR male mice at 8 weeks of age were vasectomized. ICR female mice in proestrus were mated with the vasectomized male mice, and the female mice having developed a copulation plug on the following day were used as pseudopregnant female mice. Two days after confirming the presence of the copulation plug, B6D2F 1 mouse embryos that had developed into blastocysts were transferred to the female mice. The blastocysts were added to KSOM medium supplemented with 32 µM Iznm-2 immediately before the transfer, and the embryos were transferred together with the medium. The amount of the medium injected into the uterus at the time of transfer was 5 µl or less. The embryo transfer was performed in the following manner. The pseudopregnant female mice were anesthetized, and the skin on one side in the dorsum and the abdominal wall of each mouse were incised to expose the uterus to the outside of the body. The uterus was pierced through with a 26-G needle, and the embryos were injected into the thus-formed hole together with the medium using a glass tube. After the transfer, the uterus was returned to the body, and the incision was sutured. The transferred embryos were allowed to develop in the recipient mice until E14. […]

CRE ([1]; Kidney): 0.12 mg/dL
LAP ([1]; Liver & Kidney): 26 IU/L
TP ([1]; Liver & Kidney): 5.1 g/dL
A/G ([1]; Liver): 1.85
ALB ([1]; Liver): 3.3 g/dL
ALP ([1]; Liver): 463 IU/L
ChE ([1]; Liver): 32.5 IU/L
D-BIL ([1]; Liver): 0.02 mg/dL
I-BIL ([1]; Liver): 0.02 mg/dL
T-BIL ([1]; Liver): 0.08 mg/dL
γ-GT ([1]; Liver): 3 IU/L
development of transferred embryos [2]: developed normally
SMILES: CCCCCCCCCCCCCC(=O)N[C@@H](CCCCN)C(=O)N[C@@H](Cc1ccccc1)C(=O)N[C@@H](CCC(=O)O)C(=O)N[C@@H](CCC(=O)O)C(=O)N[C@@H](CCC(=O)O)C(=O)N[C@@H](CCCNC(=N)N)C(=O)N[C@@H](CO)C(=O)N[C@@H](CCCNC(=N)N)C(=O)N[C@@H](CS)C(=O)N[C@@H](CCCCN)C(=O)N[C@@H](Cc1c[nH]c2ccccc12)C(=O)N[C@@H](CCSC)C(=O)N[C@H](C(=O)O)[C@@H](C)O [Iznm-2, Myr-KFEEERSRCKWMT] (Myristoyl-KFEEERSRCKWMT-OH)
ALT ([1]; Liver): 38 IU/L
